Reference: US20250002467A1, “DESIGN, SYNTHESIS AND MECHANISMS OF ANTICANCER ACTIVITY OF NEW ACETYLATED 5-AMINOSALICYLATE-THIAZOLINONE HYBRID DERIVATIVES” (University of Sharjah, priority 2023, published 2025)

Columns and labels:
[1] = system: MCF7, HCT116, HeLa and A549 cells; test: Cell cycle analysis by flow cytometry, four cell lines; assay type: cell-based; details: for G1 and S phases arrest: four cell lines
Method: (§1) The effect of the HH32 and HH33 compounds on the distribution of cell cycle at different time points (2, 4, 8, 24, 48, and 72 hours) was analyzed using flow cytometry. Briefly, the cells were harvested and fixed in 70% ethanol for 24 hours at −20° C. The fixed cells were treated with RNAase […] (Sigma Aldrich, Missouri, USA) and stained with propidium iodide […] (Sigma Aldrich, Missouri, USA). The data were acquired using BD Accuri C6 flow cytometer (Becton Dickenson, San Jose, CA, USA) and analysis was done using Flow Jo software (Tree Star, Inc, Ashland, OR, USA).

[2] = system: A549; test: SRB cytotoxicity assay, A549; assay type: cell-based; details: for IC50: A549, SRB, mean ± SEM
Source text: (§2) Eight different cancer cell lines were acquired from the Radiobiology and Experimental Radio Oncology lab, University Medical Center, Hamburg University, Hamburg, Germany. MCF7, MDA-MB-231 (breast cancer), and A549 (lung cancer) cells were maintained in RPMI medium while HCT116 (colon cancer), HepG2 (liver cancer), U87, U373 (glioblastoma), and HeLa (cervical cancer) were maintained in DMEM supplemented with 10% FBS and 1% penicillin/streptomycin (Sigma Aldrich, Missouri, USA). Normal human fibroblast (F180) cells were maintained in DMEM supplemented with 15% FBS. Normal human mammary epithelial cell line (HME1) were maintained in DMEM/F-12 medium supplemented with 10% FBS. All incubations were done at 37° C. in a humidified atmosphere of 5% CO2. All cell lines were authenticated by short tandem repeat (STR) profiling. The CDK4 knockout cells (provided by Dr. Samrein Ahmed, University of Sharjah, United Arab Emirates) were generated by CRISPR-CAS9 technology and were maintained in DMEM supplemented with 10% FBS.
(§3) The cytotoxic effects of HH32 and HH33 compounds were evaluated at various concentrations ranging from 0.0001 to 100 μM by sulphrhodamine-B (SRB) assay as described previously. The anti-proliferative activity was expressed as growth inhibitory concentration (IC50) values, which were calculated by the sigmoidal dose-response curve fitting method using Graph pad prism 6 software (GraphPad Software, San Diego, CA, USA).

[3] = system: U87; test: SRB cytotoxicity assay, U87; assay type: cell-based; details: for IC50: U87, SRB, mean ± SEM
Source text: as §2, §3

[4] = system: F-180; test: SRB cytotoxicity assay, normal fibroblast F-180; assay type: cell-based, human; details: F-180 normal fibroblast, mean ± SEM
Source text: as §2, §3

[5] = system: HepG2; test: SRB cytotoxicity assay, HepG2; assay type: cell-based
Source text: as §2, §3

[6] = system: MCF7, HCT-116 and A549 cells; test: Neutral comet assay; assay type: cell-based; details: for level of DNA damage (tail moment): 0.5 and 1 μM, 24 hours, three cell lines
Method: MCF7, HCT-116 and A549 cells were treated with […] of HH32 or HH33 compounds for 24 hours and control cells were treated with vehicle (DMSO). A group of cells was treated with doxorubicin as a reference drug using the same treatment conditions. Comet assay was performed in neutral condition to detect DNA double-strand breaks using comet assay kit (Trevigen Inc., Maryland, USA) according to the manufacturer's instructions. The tail moment, which reflect the amount of DNA damage in each nucleus, was calculated in at least 50 cells using OpenComet software.

[7] = system: MCF7 cells; test: Transcriptomic analysis of HH33-treated MCF7 cells; assay type: cell-based
Method: RNA extraction was carried out followed by cDNA synthesis using SuperScript VILO cDNA Synthesis kit (Invitrogen, Waltham, MA, USA) and amplification using Ion AmpliSeq gene expression core panel primers. The prepared library was purified using Agencourt AMPure XP beads (Beckman Coulter, California, USA) and quantified using Ion Library TaqMan™ Quantitation Kit (Applied Biosystems, Waltham, MA, USA). The libraries were further diluted to […] and pooled equally with four individual samples per pool. The pooled libraries were amplified using emulsion PCR on Ion OneTouch™ 2 instrument (OT2) and the enrichment was performed on Ion OneTouch™ ES following the manufacturer's instruction. Thus, prepared template libraries were then sequenced with Ion S5 XL Semiconductor sequencer using the Ion 540™ Chip. RNA-seq data were analyzed using Ion Torrent Software Suite version 5.4 and the alignment was carried out using modifications of the Torrent Mapping Alignment Program (TMAP) optimizing it for aligning the raw sequencing reads against reference sequence derived from hgl9 (GRCh37) assembly. The specificity and sensitivity was maintained by implementing a two-stage mapping approach by employing BWA-short, BWA-long, SSAHA [31], Super-maximal Exact Matching and Smith Waterman algorithm for optimal mapping. Raw read counts of the targeted genes were performed using Samtools (Samtools view —c -F 4-L bed_file bam_file) and the number of expressed transcripts was confirmed after Fragments Per Kilobase Million (FPKM) normalisation. Differentially expressed gene (DEG) analysis was performed using a script written in R programming language (version 3.6.3) with function calls to DESeq2 package from Bioconductor library sets. Raw read counts from RNASeq were normalized using quantile normalization. All counts ranked “0” were excluded. Differentially expressed genes between the two set of cell lines [HH33-treated (n=3), and untreated (n=3)] were assessed using 2 tailed t-test. Differentially expressed genes with p-value of <0.05, adjusted p-value<0.8 and 5-fold difference were included for pathway analysis using Metascape.

[8] = system: HeLa cells; test: Cell cycle analysis by flow cytometry, HeLa; assay type: cell-based; details: 1 μM, peak at 24 hours, Control 36.9%
Method: as §1

[9] = system: MCF7; test: Cell cycle analysis by flow cytometry, MCF7; assay type: cell-based; details: 1 μM, up to 72 hours, Control 11.3%
Method: as §1

[10] = H33-treated vs DMSO-treated, DNA repair pathways

## COC(=O)c1cc(NC2=NC(=O)C(=Cc3ccc(C)cc3)S2)ccc1OC(C)=O [HH32, Methyl 2-acetoxy-5-[(5-(4-methylbenzylidene)-4 (H)-oxo-1,3-thiazol-2-yl)-amino]benzoate]
[1]
  G1 and S phases arrest: no signs
[2]
  IC50: 6.17 ± 0.38 µM
[2]; F180 versus A549
  Selectivity index: 2.16
[2]; HME1 versus A549
  Selectivity index: 4.3
[3]; F180 versus U87
  Selectivity index: 2.04
[3]; HME1 versus U87
  Selectivity index: 4.1
[3]
  IC50: 6.53 ± 0.09 µM
[4]
  IC50: 13.3 ± 0.38 µM
[5]; F180 versus HepG2
  Selectivity index: 5.36
[5]; HME1 versus HepG2
  Selectivity index: 10.8
[5]; HepG2, SRB, mean ± SEM
  IC50: 2.49 ± 0.11 µM
[6]
  level of DNA damage (tail moment): increased

## COC(=O)c1cc(NC2=NC(=O)C(=Cc3ccc(N(C)C)cc3)S2)ccc1OC(C)=O [HH33, Methyl 2-acetoxy-5-[(5-(4-dimethylaminobenzylidene)-4 (H)-oxo-1,3-thiazol-2-yl)-amino]benzoate]
[1]
  percentage of cancer cells arrested at the G2/M border: up to 90%
  G1 and S phases arrest: no signs
[2]
  IC50: 2.93 ± 0.83 µM
[2]; F180 versus A549
  Selectivity index: 1.3
[2]; HME1 versus A549
  Selectivity index: 3.2
[7]; [10]
  Fold change (H_Mean/D_Mean) CDC45: 0.1426
  Fold change (H_Mean/D_Mean) CHAF1B: 0.5251
  Fold change (H_Mean/D_Mean) DDX11: 0.4961
  Fold change (H_Mean/D_Mean) ESCO2: 0.2719
  Fold change (H_Mean/D_Mean) GTF2H2C: 0.2907
  Fold change (H_Mean/D_Mean) MCM6: 0.4195
  Fold change (H_Mean/D_Mean) MMS22L: 0.2144
  Fold change (H_Mean/D_Mean) PIAS4: 0.6961
  Fold change (H_Mean/D_Mean) POLA1: 0.196
  Fold change (H_Mean/D_Mean) RAD17: 0.3003
  Fold change (H_Mean/D_Mean) RAD51: 0.2505
  Fold change (H_Mean/D_Mean) RAD51AP1: 0.2877
  Fold change (H_Mean/D_Mean) RECQL: 0.212
  Fold change (H_Mean/D_Mean) RIF1: 0.3166
  Fold change (H_Mean/D_Mean) RNF111: 0.5331
  Fold change (H_Mean/D_Mean) RNF168: 0.2605
  Fold change (H_Mean/D_Mean) TRIP13: 0.4436
  Fold change (H_Mean/D_Mean) UBE2N: 0.3688
  Fold change (H_Mean/D_Mean) UBE2W: 0.224
  Fold change (H_Mean/D_Mean) ZSWIM7: 0.3144
[7]; hypergeometric test
  pathways related to DNA repair and cell cycle progression: down-regulation
[3]; F180 versus U87
  Selectivity index: 3.8
[3]; HME1 versus U87
  Selectivity index: 9
[3]
  IC50: 1.03 ± 0.11 µM
[8]
  G2/M phase accumulation: 93.9%
[4]
  IC50: 3.91 ± 0.43 µM
[9]
  G2/M cell cycle arrest: 57.7%
[5]; F180 versus HepG2
  Selectivity index: 10.3
[5]; HME1 versus HepG2
  Selectivity index: 24
[6]; 1 μM, same concentration, three tested cell lines
  level of DNA double strand breaks compared with doxorubicin: higher than doxorubicin
[6]
  level of DNA damage (tail moment): increased
[6]; MCF7 and HCT-116 cells
  comet length compared with HH32-treated cells: markedly higher
